Test results taken from patent US5434295A (priority 1994, dated 1995).
pKi: −log10 of the molar value.

Columns and labels:
cannabimimetic activity = details: cited from earlier work
Rat brain NMDA receptors = assay: Blockade of NMDA response in Xenopus oocytes injected with rat brain RNA; type: biochemical
Excerpt: Blockade of NMDA-induced voltage changes in Xenopus oocytes: Frog oocytes can be injected with genetic material from various species and organs, resulting in the expression of the various molecules encoded by this material in the oocyte. Injection of rat brain RNA provides active NMDA receptors on the ooctye surface. Application of NMDA results in changes in the electrical activity recorded from the oocytes. Various NMDA antagonists block the NMDA-induced changes in electrical activity and their potency and dose dependence in this system indicate their potency and mode of action as NMDA antagonists.
The oocyte is the most widely used system for studying the molecular, biophysical and pharmacological properties of expressed voltage- or transmitter-operated ion channels. This giant cell offers several advantages for this type of studies. It can be readily used for two-electrode voltage clamp studies, translates injected mRNA from different sources and functionally expresses the translated proteins, and it is also readily amenable for intracellular micron injections. Importantly, the recordings of neurotransmitter- or voltage-induced currents in a single oocyte are extremely stable and can performed repeatedly for 2-3 hours; this allows the performance of a full dose-response relation in single oocytes.
Rat brain NMDA receptors were expressed in Xenopus oocytes injected with total rat brain RNA. Dascal and Lotan. The conditions for injection culture and electrical recording from oocytes were as described by Dascal and Lotan (in: Methods in Molecular Biology, Longstaff and Revest, eds. Vol. 13, Chapter 13, Humana Press, N.J., 1992).
Briefly, female Xenopus were anesthetized by immersion in water containing 0.15% tricaine methanesulfonate and a small incision was made in the lower abdomen. Ovary fragments were removed into ND-96.
The oocytes were defolliculated by the collagenase treatment in order to remove the follicle cell layer. Defolliculated oocytes were injected with total rat brain RNA and incubated for 2-4 days at 22° C. in sterile NDE-96 solution. ND-96 solution contains (in mM): NaCl - 96, KCl - 2, CaCl2 - 1.8, Hepes - 5 (pH=7.4-7.6). NDE-96 contains in addition, 2.5 mM sodium pyruvate, 100 unit/ml penicillin, 100 μg/ml streptomycin. A single oocyte was placed in a 1 ml bath constantly superfused with ND-96 solution at room temperature. The cell was impaled with two microelectrodes and held at membrane potential of -60 mV using voltage clamp circuit.
RNA was extracted from the brain of 14-day old rat brain. Each oocyte was injected with 50 nl total RNA (4-8 mg/ml in water, stored at -80° C. in […] aliquots).
NMDA receptors were activated by application of NMDA with glycine in Mg-free ND-96 solution. It was shown previously and also observed in this study that the entry of calcium ions through the NMDA receptor-channel evokes a Ca-dependent Cl^- current which appeared as an early inward current peak preceding and overlapping the actual NMDA response and hindering a quantitative pharmacological study of NMDA antagonists. Experimental conditions were therefore worked out aimed at eliminating the Cl^- current. The best protocol employed the use of Ca-free, Ba-containing solution, avoiding repetitive application of antagonists, as well as other conditions including optimal perfusion rate and optimal intervals between repetitive NMDA applications.
Several NMDA receptor blockers were tested. These compounds have […] and have to be dissolved in 100% dimethyl sulfoxide (DMSO) and diluted for use in ND-96 that contained 1% DMSO. Therefore, the effect of 1% DMSO on the response to 10^-4 M NMDA and 5×10^-6 M glycine was examined. DMSO had no effect on NMDA response in three different cells.
Eight putative NMDA antagonists of the HU group, including 270, 271 and 259 were tested for anti-NMDA activity at a glutamate receptor. […]

[1] = system: intraocular pressure (IOP); assay: Ocular hypotensive activity (intraocular pressure) in albino rabbits; type: in vivo, albino rabbit; details: for Max ΔIOP: ** drug vs. vehicle P < 0.01
Experimental: Bicyclic compounds of the present invention were also tested for IOP lowering effects.
Sci., 82, 1069-1079 (1993).
The phospholipids and HU-259 were dissolved in the stabilized oily phase. The other excipients were dissolved in the aqueous phase. Both phases were heated separately to 70° C. and dispersed by a magnetic stirrer. Emulsification was completed using a "high speed mixer" for 5 min at 85° C. The resulting emulsion was cooled rapidly below 20° C. and homogenized using a two-stage homogenizing valve assembly (Gaulin Homogenizer, APV Gaulin, Hilversum, The Netherlands) for 5 min. All the manufacturing procedures were carried out under aseptic conditions and a nitrogen atmosphere. The pH was adjusted to 7.4 using a sodium hydroxide solution (10%). The final fine emulsion was filtered to achieve sterility and stored in ampoules. A typical formulation (%, w/w) consisted of the following: HU-259, 0.2%; oily phase, 20.0%; purified fractionated egg phospholipids, 1.2%; nonionic emulsifier, 2%; glycerin, 2.25%; α-tocopherol, 0.02%; methyl and butyl p-hydroxy- benzoic ester, 0.3 and 0.075%, respectively; and water for injection, to 100.0 g. The control emulsion vehicle was prepared using identical experimental conditions but without drug.
IOP was measured by using a pneumatonometer (Digilab T30). Pressure readings were calibrated for verification every 6 h. One drop (50 μl) of local anesthetic (Benoxinate HCl, 0.4% Fischer [Isr] diluted 1:3 with sterile saline) was instilled into each eye prior to IOP measurements.

[2] = target: MK-801 sites located at the NMDA receptor ion channel; assay: Inhibition of [3H]MK-801 binding to rat forebrain membranes
Excerpt: Binding to the NMDA receptor linked channel: Non competitive antagonists of NMDA, the primary example of which is the compound MK-801, bind to a site within the NMDA receptor channel thus preventing the activation of the receptor-channel complex and the consequent neurotoxicity. The ability of various compounds to compete with the binding of tritium labeled MK-801 to brain membranes is considered a measure of their potency as NMDA non-competitive antagonists.
The association of pinene derivatives with acetylcholine-muscarinic receptor and with MK-801 sites located at the NMDA receptor ion channel.
Inhibition of ^3 [H]MK-801 binding to rat forebrain membranes by the test HU-211 compounds was carried out as described for HU-211 in Eshhar et al., NeuroReport 5, No. 3, 1993) (Methods section). The test compounds were solubilized in a mixture of ethanol:Emulfor:water (20:3:57).

GABA receptors = assay: Effect on GABA responses in oocytes; type: biochemical, rat
AMPA/kainate receptors = assay: Effect on kainate responses in oocytes; type: biochemical, rat
[3] = system: voltage-dependent P-type calcium channels; assay: Inhibition of voltage-dependent P-type calcium channels expressed in oocytes; type: biochemical, rat
cannabinoid receptors = details: Devane et al. 1992; cited from earlier work
[4] = system: NMDA-induced tremor, seizures and lethality in mice; details: Feigenbaum et al. 1989; cited from earlier work
[5] = system: rat brain cortical membrane preparations; details: cited from earlier work
[6] = system: NMDA receptor linked ion channel; details: Nadler et al. 1993; cited from earlier work
[7] = system: closed head injury, a model of head trauma; details: Shohami et al. 1993; cited from earlier work
[8] = system: CA1 hippocampal region in gerbils; details: injected after the ischemic insult; Bar-Joseph et al. 1993; cited from earlier work
[9] = system: intraocular pressure (IOP); details: in vivo; cited from earlier work
NMDA toxicity in mice = assay: Prevention of NMDA neurotoxicity in mice (neurological scores); type: in vivo, mice (Balb/C); details: for maximum improvement of neurological scores: NMDA 60 mg/kg s.c., i.p. or i.v. pretreatment; for neurological scores/symptoms after NMDA toxicity: pretreated mice
Excerpt: Blockade of NMDA toxicity in mice: Subcutaneous injection of NMDA in mice results in a dose-dependent increase in the number, severity and duration of several neurological symptoms, culminating in death at the higher dose range. The symptoms include tail flicks, circling, tremor and convulsions. The ability of various compounds, when administered to mice prior to NMDA, to reduce the number and severity of these symptoms is a considered a measure of their potency in preventing NMDA behavioral toxicity in vivo.
Test drugs were administered intraperitoneally at the stipulated doses in a solution of MCT oil. Each point represents the mean scores of eight mice treated with the drug compared to the same number of control animals receiving the vehicle alone.
Test compounds were administered at a standard dose of 10 mg/kg either intraperitoneally (in MCT oil) or intravenously (in a submicronized emulsion).
(§1) Bicyclic compounds of the present invention were tested for their ability to block NMDA toxicity in mice. Balb/C mice received NMDA by subcutaneous injection at a dose of 60 mg/kg which was determined to be the LD20 dose of this substance. Thirty minutes prior to injection of the neurotoxin the animals received either (a) an intravenous injection of the test drug formulated in submicronized emulsion as described in Example 11); (b) an intraperitoneal injection of the test drug dissolved in MCT oil; (c) or the appropriate vehicle alone (control groups). The improvement rate afforded by the test drug was defined as the difference between scores of animals receiving the formulated drug and those receiving the vehicle alone. The doses tested for HU-254, HU-259 and HU-260 ranged from 5 to 30 mg/kg.
At least 6-8 mice were included per test group. The materials were tested in a masked study to preclude bias of the observer of clinical symptoms.
The behavioral scoring method (tabulated above) was used as the basic quantitative procedure for evaluating the level of NMDA or kainic acid neurotoxicity in mice. The neurological clinical status of each animal was calculated by totalling the scores of all signs that were evident throughout the study. Duration of symptoms was also taken into account.
If duration of a neurological system is up to 30 seconds, the score is s-1. Duration between 0.5-3.0 mins, the score is s. Duration longer than 3 mins, the score is s+1.

[10] = system: acetylcholine-muscarinic receptor; type: binding, rat; details: 100 μM analogue
Balb/C mice = assay: Lethality of subcutaneous NMDA in mice; type: in vivo; details: subcutaneous injection
Experimental: as §1

## CCCCCCC(C)(C)c1ccc([C@@H]2C[C@H](O)CC[C@H]2CCCO)c(O)c1 [CP-55940]
Cannabimimetic activity
  cannabimimetic activity: found to produce cannabimimetic effects

## CCCCCCC(C)(C)c1cc(O)c2c(c1)OC(C)(C)[C@@H]1CC=C(CO)C[C@@H]21 [HU-210, 1,1 dimethylheptyl (DMH) homolog of [3R,4R]-7-hydroxy Δ^6 THC, reference compound]
Rat brain NMDA receptors; 10 μM
  % inhibition of NMDA: 0%
Rat brain NMDA receptors; concentrations up to 10 μM
  inhibitory effects on NMDA response: did not have any inhibitory effects
Cannabimimetic activity
  cannabimimetic activity: two orders of magnitude higher than the natural Δ^1 THC

## CCCCCCC(C)(C)c1cc(O)c2c(c1)OC(C)(C)[C@H]1CC=C(CO)C[C@H]21 [HU-211, 7-hydroxy-Δ^6-tetrahydrocannabinol 1,1-dimethylheptyl, reference compound]
[1]; contralateral eye
  AUC (from instillation of treatment until return to baseline IOP): -4.9 ± 7.0 mmHg × hrs
  Max ΔIOP: -2.0 ± 1.1 mmHg
[1]; treated eye
  AUC (from instillation of treatment until return to baseline IOP): -9.5 ± 6.0 mmHg × hrs
[1]; treated eye, single dose 0.2% emulsion
  Max ΔIOP: -2.9 ± 0.7 mmHg
Rat brain NMDA receptors; 1 μM
  % inhibition of NMDA: 32%
Rat brain NMDA receptors; 10 μM
  % inhibition of NMDA: 47%
Rat brain NMDA receptors; Lineweaver-Burke analysis
  mode of NMDA antagonism: non-competitive NMDA antagonists
Rat brain NMDA receptors; NMDA response
  concentration at which inhibitory activity was first apparent: 10 nM
[2]; [3H]MK801 binding, rat forebrain membranes, representative experiment in triplicate (HU259), read-out: inhibition constant (K1)
  pKi: 4.95
GABA receptors
  effect on GABA responses: no effect
AMPA/kainate receptors
  effect on kainate responses: no effect
[3]
  inhibition of activity of voltage-dependent P-type calcium channels: did not inhibit
Cannabinoid receptors
  affinity to the cannabinoid receptors: very low affinity
Cannabimimetic activity
  cannabimimetic activity: inactive as a cannabimimetic
[4]
  block of NMDA-induced tremor, seizures and lethality: block NMDA-induced tremor, seizures and lethality in mice
[5]
  increase in binding of [3H]TCP induced by polyamines, glutamate or glycine: blocked the increase in binding
[6]
  NMDA induced uptake of 45Ca++ ions: block the NMDA induced uptake
[7]
  extent of edema formation and overall neurological damage: significantly reduced
[8]
  neuronal cell damage in CA1 hippocampal region: prevent neuronal cell damage
[9]
  lowering of intraocular pressure: lowering of intraocular pressure (IOP)

## CCCCCCC(C)(C)c1cc(OC(C)=O)c([C@H]2C=C(COC(C)=O)[C@H]3C[C@@H]2C3(C)C)c(OC(C)=O)c1 [HU-254]
NMDA toxicity in mice
  maximum improvement of neurological scores: 30-40%
  neurological scores/symptoms after NMDA toxicity: improvement in neurological scores
NMDA toxicity in mice; i.p. dose of 20 mg/kg
  maximum improvement rate on the neurological scores: 25%
NMDA toxicity in mice; i.v. vs i.p.
  effect of route of administration on performance: significantly enhanced by i.v. administration
[10]
  % inhibition of tritiated ligand binding to membranes, 3[H]QNB: 96.1%
[2]; 100 μM analogue
  % inhibition of tritiated ligand binding to membranes, 3[H]-MK-801: 5.3%

## CCCCCCC(C)(C)c1cc(OC(C)=O)c([C@H]2C=C(CO)[C@H]3C[C@@H]2C3(C)C)c(OC(C)=O)c1 [HU-260]
NMDA toxicity in mice
  maximum improvement of neurological scores: 30-40%
  neurological scores/symptoms after NMDA toxicity: improvement in neurological scores

## CN[C@H](CC(=O)O)C(=O)O [NMDA, N-methyl-D-aspartate]
Balb/C mice
  LD20 dose: 60 mg/kg

## COc1ccc(C(=O)c2c(C)n(CCN3CCOCC3)c3ccccc23)cc1 [pravadoline]
Cannabimimetic activity
  cannabimimetic activity: found to produce cannabimimetic effects
